According to patent US6781000B1, “Alpha-ketoamide inhibitors of 20S proteasome” (CV Theurapeutics, Inc., priority 1998, dated 2004):

Target: T1, chymotrypsin-like activity of 20S proteasome (Bos taurus, UniProt Q2TBX6+Q32KL2)
T1 construct: was purified to homogeneity from bovine brain according to published methods; from tissue; host or cells: bovine brain
Assay: 20S proteasome chymotryptic activity inhibition assay (Suc-Leu-Leu-Val-Tyr-AMC cleavage)
Format: biochemical
Conditions: 2 μg 20S proteasome from bovine brain, 50 μM fluorogenic substrate, 15 minutes at 37° C., pH7.5
Protocol: Compounds of this invention prepared according to the method of Example 1 were tested as follows. The 20S catalytic subunit of the proteasome (also known as the multicatalytic proteinase complex) was purified to homogeneity from bovine brain according to published methods (Wilk S. and Orlowski,M 1983, 40 842 J.Neurochem). The chymotryptic activity of the complex is measured by the increase in fluorescence following cleavage of the substrate peptide succinyl-leucine-leucine-valine-tyrosine-7-amino-4methyl coumarin. The standard in vitro assay consists of 2 μg 20S proteasome, 0.1-100 μg/ml proteasome inhibitor in 200 μl 50 mM HEPES, containing 0.1% sodium dodecyl sulphate, pH7.5. The proteolytic reaction is initiated by the addition of 50 μM flourogenic peptide substrate and allowed to progress for 15 minutes at 37° C. The reaction is terminated by the addition of 100 μL of 100 mM acetate buffer, pH4.0. The rate of proteolysis is directly proportional to the amount of liberated aminomethylcoumarin which is measured by fluorescent spectroscopy (EX 370 nm, EM 430 nm).

| IC50 [µM] | IC50 for the inhibition of the chymotrypsin-like activity of 20S proteasome [µg/mL] | Structure (SMILES) |
| --- | --- | --- |
| – | >10 | CC(C)CC(NC(=O)C(CC(C)C)NC(=O)C(CC(C)C)NC(=O)C(=O)Cc1c[nH]c2ccccc12)C(=O)O (stereo not drawn) [Compound 28] |
| – | >10 | CCC(C)C(NC(=O)C(CC(C)C)NC(=O)C(CC(C)C)NC(=O)C(=O)Cc1c[nH]c2ccccc12)C(=O)O (stereo not drawn) [Compound 29] |
| – | >10 | CC(C)CC(NC(=O)C(=O)Cc1c[nH]c2ccccc12)C(=O)NC(CC(C)C)C(=O)NC(Cc1ccc(O)cc1)C(=O)O (stereo not drawn) [Compound 31] |
| – | >10 | CC(C)CC(NC(=O)C(=O)Cc1c[nH]c2ccccc12)C(=O)NC(CC(C)C)C(=O)NC(C(=O)O)C(C)C (stereo not drawn) [Compound 32] |
| – | >10 | CC(C)CC(NC(=O)C(CC(C)C)NC(=O)C(CC(C)C)NC(=O)C(=O)Cc1c[nH]c2ccccc12)C(=O)O (stereo not drawn) [Compound 33] |
| – | >10 | CCC(C)C(NC(=O)C(CC(C)C)NC(=O)C(CC(C)C)NC(=O)C(=O)Cc1c[nH]c2ccccc12)C(=O)O (stereo not drawn) [Compound 34] |
| – | >10 | CC(C)CC(NC(=O)C(=O)Cc1c[nH]c2ccccc12)C(=O)NC(CC(C)C)C(=O)NC(Cc1ccc(O)cc1)C(=O)O (stereo not drawn) [Compound 36] |
| – | >10 | CC(C)CC(NC(=O)CNC(=O)C(=O)Cc1c[nH]c2ccccc12)C(=O)NC(C(=O)O)C(C)C (stereo not drawn) [Compound 37] |
| – | >10 | CC(C)CC(NC(=O)CCNC(=O)C(=O)Cc1c[nH]c2ccccc12)C(=O)NC(C(=O)O)C(C)C (stereo not drawn) [Compound 38] |
| – | >10 | CCCCC(NC(=O)C(=O)Cc1c[nH]c2ccccc12)C(=O)NC(CC(C)C)C(=O)NC(C(=O)O)C(C)C (stereo not drawn) [Compound 39] |
| > 17.8 | – | CC(C)C[C@@H](NC(=O)[C@H](Cc1ccccc1)NC(=O)C(=O)Cc1c[nH]c2ccccc12)C(=O)N[C@H](C(=O)O)C(C)C [Compound 40] |
| – | >10 | CC(C)CC(NC(=O)C(NC(=O)C(=O)Cc1c[nH]c2ccccc12)C(C)O)C(=O)NC(C(=O)O)C(C)C (stereo not drawn) [Compound 41] |
| – | >10 | CC(C)CC(NC(=O)C(C)NC(=O)C(=O)Cc1c[nH]c2ccccc12)C(=O)NC(C(=O)O)C(C)C (stereo not drawn) [Compound 42] |
| – | >10 | CC(C)CC(NC(=O)C(CC(=O)O)NC(=O)C(=O)Cc1c[nH]c2ccccc12)C(=O)NC(C(=O)O)C(C)C (stereo not drawn) [Compound 43] |
| – | >10 | CC(C)CC(NC(=O)C(NC(=O)C(=O)Cc1c[nH]c2ccccc12)C(C)C)C(=O)NC(C(=O)O)C(C)C (stereo not drawn) [Compound 44] |
| – | >10 | CCCC(NC(=O)C(=O)Cc1c[nH]c2ccccc12)C(=O)NC(CC(C)C)C(=O)NC(C(=O)O)C(C)C (stereo not drawn) [Compound 45] |
| – | >10 | CC(C)CC(NC(=O)C(Cc1ccc(O)cc1)NC(=O)C(=O)Cc1c[nH]c2ccccc12)C(=O)NC(C(=O)O)C(C)C (stereo not drawn) [Compound 46] |
| – | >10 | CCC(C)C(NC(=O)C(=O)Cc1c[nH]c2ccccc12)C(=O)NC(CC(C)C)C(=O)NC(C(=O)O)C(C)C (stereo not drawn) [Compound 47] |
| – | >10 | CC(C)CC(NC(=O)C(CC1CCCCC1)NC(=O)C(=O)Cc1c[nH]c2ccccc12)C(=O)NC(C(=O)O)C(C)C (stereo not drawn) [Compound 48] |
| – | >10 | CC(C)CC(NC(=O)C(Cc1cccnc1)NC(=O)C(=O)Cc1c[nH]c2ccccc12)C(=O)NC(C(=O)O)C(C)C (stereo not drawn) [Compound 49] |
| – | >10 | CC(C)CC(NC(=O)C(Cc1ccc2ccccc2c1)NC(=O)C(=O)Cc1c[nH]c2ccccc12)C(=O)NC(C(=O)O)C(C)C (stereo not drawn) [Compound 50] |
| > 15.7 | – | CC(C)C[C@@H](NC(=O)[C@H](Cc1ccc(-c2ccccc2)cc1)NC(=O)C(=O)Cc1c[nH]c2ccccc12)C(=O)N[C@H](C(=O)O)C(C)C [Compound 51] |
| – | >10 | CC(C)CC(NC(=O)CNC(=O)C(=O)Cc1c[nH]c2ccccc12)C(=O)NCC(=O)O (stereo not drawn) [Compound 52] |
| > 22.5 | – | CC(C)CC(NC(=O)CCNC(=O)C(=O)Cc1c[nH]c2ccccc12)C(=O)NCC(=O)O (stereo not drawn) [Compound 53] |
| – | >10 | CCCCC(NC(=O)C(=O)Cc1c[nH]c2ccccc12)C(=O)NC(CC(C)C)C(=O)NCC(=O)O (stereo not drawn) [Compound 54] |
| – | >10 | CC(C)CC(NC(=O)C(Cc1ccccc1)NC(=O)C(=O)Cc1c[nH]c2ccccc12)C(=O)NCC(=O)O (stereo not drawn) [Compound 55] |
| – | >10 | CC(C)CC(NC(=O)C(NC(=O)C(=O)Cc1c[nH]c2ccccc12)C(C)O)C(=O)NCC(=O)O (stereo not drawn) [Compound 56] |

Continued, molecule first:

| Structure (SMILES) | IC50 [µM] | IC50 for the inhibition of the chymotrypsin-like activity of 20S proteasome [µg/mL] |
| --- | --- | --- |
| CC(C)C[C@@H](NC(=O)C(=O)Cc1c[nH]c2ccccc12)C(=O)N[C@H](CC(C)C)C(=O)NCc1ccccc1 [Compound 3] | > 19.3 | – |
| CC(C)CC(NC(=O)C(=O)Cc1c[nH]c2ccccc12)C(=O)NC(CC(C)C)C(=O)NCC(=O)O (stereo not drawn) [Compound 5] | > 20.6 | – |
| CC(C)CC(NC(=O)C(=O)Cc1ccccc1)C(=O)NC(CC(C)C)C(=O)NCC(=O)O (stereo not drawn) [Compound 6] | – | >10 |
| CC(C)CC(NC(=O)C(=O)Cc1ccccc1)C(=O)NC(CC(C)C)C(=O)NCC(=O)NCc1ccccc1 (stereo not drawn) [Compound 7] | – | >10 |
| CC(C)CC(NC(=O)C(=O)c1c[nH]c2ccccc12)C(=O)NC(CC(C)C)C(=O)NCC(=O)NCc1ccccc1 (stereo not drawn) [Compound 8] | – | >10 |
| CC(C)CC(NC(=O)C(=O)Cc1c[nH]c2ccccc12)C(=O)NC(CC(C)C)C(=O)NCC(=O)NCc1ccccc1 (stereo not drawn) [Compound 9] | – | >10 |
| CC(C)CC(NC(=O)C(CC(C)C)NC(=O)C(=O)c1c[nH]c2ccccc12)C(=O)O (stereo not drawn) [Compound 10] | – | >10 |
| CC(C)CC(NC(=O)C(CC(C)C)NC(=O)C(=O)c1ccccc1)C(=O)O (stereo not drawn) [Compound 11] | – | >10 |
| CC(C)CC(NC(=O)C(=O)c1ccccc1)C(=O)NC(CC(C)C)C(=O)NCC(=O)O (stereo not drawn) [Compound 12] | – | >10 |
| CC(C)CC(NC(=O)C(=O)Cc1ccccc1)C(=O)NC(CC(C)C)C(=O)NC(Cc1ccccc1)C(=O)O (stereo not drawn) [Compound 13] | – | >10 |
| CC(C)CC(NC(=O)C(=O)c1c[nH]c2ccccc12)C(=O)NC(CC(C)C)C(=O)NC(Cc1ccccc1)C(=O)O (stereo not drawn) [Compound 14] | – | >10 |
| CC(C)C[C@H](NC(=O)C(=O)Cc1c[nH]c2ccccc12)C(=O)N[C@H](CC(C)C)C(=O)N[C@H](C(=O)O)C(C)C [Compound 17] | > 18.9 | – |
| CC(C)C[C@H](NC(=O)[C@@H](CC(C)C)NC(=O)[C@H](CC(C)C)NC(=O)C(=O)Cc1c[nH]c2ccccc12)C(=O)O [Compound 18] | > 18.4 | – |
| CCC(C)C(NC(=O)C(CC(C)C)NC(=O)C(CC(C)C)NC(=O)C(=O)Cc1c[nH]c2ccccc12)C(=O)O (stereo not drawn) [Compound 19] | – | >10 |
| CC(C)CC(NC(=O)C(=O)Cc1c[nH]c2ccccc12)C(=O)NC(CC(C)C)C(=O)NC(C)C(=O)O (stereo not drawn) [Compound 20] | – | >10 |
| CC(C)CC(NC(=O)C(=O)Cc1c[nH]c2ccccc12)C(=O)NC(CC(C)C)C(=O)NC(Cc1ccc(O)cc1)C(=O)O (stereo not drawn) [Compound 21] | – | >10 |
| CC(C)CC(NC(=O)C(CC(C)C)NC(=O)C(CC(C)C)NC(=O)C(=O)Cc1c[nH]c2ccccc12)C(=O)O (stereo not drawn) [Compound 22] | – | >10 |
| CC(C)C[C@H](NC(=O)[C@@H](CC(C)C)NC(=O)[C@@H](CC(C)C)NC(=O)C(=O)Cc1c[nH]c2ccccc12)C(=O)O [Compound 23] | > 18.4 | – |
| CCC(C)C(NC(=O)C(CC(C)C)NC(=O)C(CC(C)C)NC(=O)C(=O)Cc1c[nH]c2ccccc12)C(=O)O (stereo not drawn) [Compound 24] | – | >10 |
| CC(C)CC(NC(=O)C(=O)Cc1c[nH]c2ccccc12)C(=O)NC(CC(C)C)C(=O)NC(C)C(=O)O (stereo not drawn) [Compound 25] | – | >10 |
| CC(C)CC(NC(=O)C(=O)Cc1c[nH]c2ccccc12)C(=O)NC(CC(C)C)C(=O)NC(Cc1ccc(O)cc1)C(=O)O (stereo not drawn) [Compound 26] | – | >10 |
| CC(C)CC(NC(=O)C(=O)Cc1c[nH]c2ccccc12)C(=O)NC(CC(C)C)C(=O)NC(C(=O)O)C(C)C (stereo not drawn) [Compound 27] | – | >10 |
| CC(C)CC(NC(=O)C(=O)Cc1c[nH]c2ccccc12)C(=O)NC(CC(C)C)C(=O)NC(C)C(=O)O (stereo not drawn) [Compound 30] | > 20 | – |
| CC(C)CC(NC(=O)C(=O)Cc1c[nH]c2ccccc12)C(=O)NC(CC(C)C)C(=O)NC(C)C(=O)O (stereo not drawn) [Compound 35] | – | >10 |
